Target: GluN1/GluN2B Receptors (Rattus norvegicus, UniProt P35439+Q00960)
Assay: Two-electrode voltage-clamp IC50 determination at GluN1/GluN2B receptors expressed in Xenopus oocytes
Type: cell-based, Human or Rat
Description: Determination of IC50 Values of GluN1/GluN2B Receptors Expressed in Xenopus oocytes in Human or Rat Stage V and VI oocytes were surgically removed from the ovaries of large, well-fed and healthy Xenopus laevis anesthetized with 3-amino-benzoic acid ethyl ester (3 gm/l). Oocytes were injected within 24 hrs of isolation with 3-5 ng of GluN1 subunit cRNA and 7-10 ng of GluN2 cRNA subunit in a 50 nl volume, and incubated in Barth's solution at 18° C. for 2-7 d. Glass injection pipettes had tip sizes ranging from 10-20 microns, and were backfilled with mineral oil. Two electrode voltage-clamp recordings were made 2-7 days post-injection. Oocytes were placed in a dual-track plexiglass recording chamber and dual recordings were made at room temperature (23° C.) using two Warner OC725C two-electrode voltage clamp amplifiers, arranged as recommended by the manufacturer. Glass microelectrodes (1-10 Megaohms) were filled with 300 mM KCl (voltage electrode) or 3 M KCl (current electrode). The bath clamps communicated across silver chloride wires placed into each side of the recording chamber, both were assumed to be at a reference potential of 0 mV. Oocytes were perfused with a solution comprised of (in mM) 90 NaCl, 1 KCl, 10 HEPES, 10 EDTA and 0.5 BaCl2; pH was adjusted by addition of 1-3 M NaOH or HCl. Oocytes were recorded under voltage clamp at −40 mV. Final concentrations for glutamate and glycine were 50 μM and 30 μM, respectively. Concentration-response curves for experimental compounds were obtained by applying maximal glutamate/glycine, followed by glutamate/glycine plus variable concentrations of experimental compounds. Dose response curves consisting of 4 to 6 concentrations were obtained in this manner. The baseline leak current at −40 mV was measured before and after recording, and the full recording linearly corrected for any change in leak current. The level of inhibition by applied experimental compounds measured after a 6 min exposure to a compound was expressed as a percent of the initial glutamate response, and averaged together across oocytes from multiple experiments. Results were pooled, and the average percent responses at antagonist concentrations were fit by the equation, Percent Response=(100−minimum)/(1+([conc]/IC50)^nH)+minimum where minimum is the residual percent response in saturating concentration of the experimental compounds, IC50 is the concentration of antagonist that causes half of the achievable inhibition, and nH is a slope factor describing steepness of the inhibition curve. Minimum was constrained to be between zero and 20. Recordings were made at pH 6.9, pH 7.4, and pH 7.6.

Sequence of GluN1/GluN2B Receptors (Q00960 27-1482, other chains not shown): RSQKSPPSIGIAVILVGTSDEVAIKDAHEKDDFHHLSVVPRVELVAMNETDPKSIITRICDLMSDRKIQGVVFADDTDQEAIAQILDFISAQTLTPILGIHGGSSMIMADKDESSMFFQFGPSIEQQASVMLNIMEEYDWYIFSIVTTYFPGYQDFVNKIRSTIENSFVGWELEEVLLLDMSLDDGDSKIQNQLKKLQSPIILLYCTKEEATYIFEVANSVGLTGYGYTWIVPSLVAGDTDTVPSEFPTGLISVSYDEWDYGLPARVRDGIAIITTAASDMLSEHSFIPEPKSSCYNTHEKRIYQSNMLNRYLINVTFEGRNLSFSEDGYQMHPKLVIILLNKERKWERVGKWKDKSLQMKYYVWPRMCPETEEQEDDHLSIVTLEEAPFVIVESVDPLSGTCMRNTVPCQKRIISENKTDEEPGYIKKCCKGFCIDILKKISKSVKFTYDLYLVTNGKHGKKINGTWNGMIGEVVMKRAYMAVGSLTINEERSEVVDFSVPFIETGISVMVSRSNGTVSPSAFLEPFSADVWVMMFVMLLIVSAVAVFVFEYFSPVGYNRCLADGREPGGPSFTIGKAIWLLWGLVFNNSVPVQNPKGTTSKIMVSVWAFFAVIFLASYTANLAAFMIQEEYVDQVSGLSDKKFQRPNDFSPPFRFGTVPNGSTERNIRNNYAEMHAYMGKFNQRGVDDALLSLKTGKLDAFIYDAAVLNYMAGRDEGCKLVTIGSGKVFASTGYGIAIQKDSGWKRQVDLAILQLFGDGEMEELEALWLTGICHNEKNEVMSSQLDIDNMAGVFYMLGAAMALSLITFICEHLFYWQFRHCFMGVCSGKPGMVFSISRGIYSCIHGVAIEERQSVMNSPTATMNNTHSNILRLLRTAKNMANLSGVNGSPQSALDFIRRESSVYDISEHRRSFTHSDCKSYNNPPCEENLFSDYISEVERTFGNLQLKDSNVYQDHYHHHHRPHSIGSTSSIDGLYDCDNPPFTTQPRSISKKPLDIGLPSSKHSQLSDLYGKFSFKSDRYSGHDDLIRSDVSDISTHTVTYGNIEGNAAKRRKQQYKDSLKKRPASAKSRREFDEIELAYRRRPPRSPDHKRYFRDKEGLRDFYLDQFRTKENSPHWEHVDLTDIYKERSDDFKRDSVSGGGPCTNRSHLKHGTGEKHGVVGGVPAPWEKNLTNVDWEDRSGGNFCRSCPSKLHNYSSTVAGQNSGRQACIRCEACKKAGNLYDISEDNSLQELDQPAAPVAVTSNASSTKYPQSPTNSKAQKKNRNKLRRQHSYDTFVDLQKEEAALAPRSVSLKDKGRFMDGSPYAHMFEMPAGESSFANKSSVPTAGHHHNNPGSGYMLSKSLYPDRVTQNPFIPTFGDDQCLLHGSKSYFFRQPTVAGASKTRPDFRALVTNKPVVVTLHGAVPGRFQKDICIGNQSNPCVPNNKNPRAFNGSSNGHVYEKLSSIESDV

Row | SMILES | nH (slope factor of the inhibition curve) (pH 6.9) | nH (slope factor of the inhibition curve) (pH 7.6)
1 | CC(C)c1ccc(N2CCN(C[C@H](O)/C=C/c3ccc4c(c3)CCC(=O)N4)CC2)cc1 [Compound 29, (R,E)-6-(3-Hydroxy-4-(4-(4-isopropylphenyl)piperazin-1-yl)but-1-en-1-yl)-3,4-dihydroquinolin-2(1H)-one] | −0.54 | −1.31
2 | O=C1CCc2cc(/C=C/C(O)CN3CCN(c4ccc(Cl)cc4)CC3)ccc2N1 (racemic) [Compound 21, (rac)-(E)-6-(4-(4-(4-Chlorophenyl)piperazin-1-yl)-3-hydroxybut-1-en-1-yl)-3,4-dihydroquinolin-2(1H)-one] | −0.81 | −1.28
3 | O=C1CCc2cc(/C=C/[C@@H](O)CN3CCN(c4ccc(C(F)(F)F)cn4)CC3)ccc2N1 [Compound 45, (R,E)-6-(3-Hydroxy-4-(4-(5-(trifluoromethyl)pyridin-2-yl)piperazin-1-yl)but-1-en-1-yl)-3,4-dihydroquinolin-2(1H)-one] | −0.80 | −0.80
4 | O=C1CCc2cc(/C=C/[C@@H](O)CN3CCN(c4ccc(Cl)cc4)CC3)ccc2N1 [Compound 31, (R,E)-6-(4-(4-(4-Chlorophenyl)piperazin-1-yl)-3-hydroxybut-1-en-1-yl)-3,4-dihydroquinolin-2(1H)-one] | −0.64 | −0.90
5 | O=C1CCc2cc(/C=C/[C@H](O)CN3CCN(c4ccc(C(F)(F)F)cc4)CC3)ccc2N1 [Compound 33, (S,E)-6-(3-Hydroxy-4-(4-(4-(trifluoromethyl)phenyl)piperazin-1-yl)but-1-en-1-yl)-3,4-dihydroquinolin-2(1H)-one] | −0.56 | −0.65
6 | CCCc1ccc(N2CCN(CC(O)C=Cc3ccc4[nH]c(=O)ccc4c3)CC2)cc1 (racemic) [Compound 10, (rac-)(E)-6-(3-hydroxy-4-(4-(4-propylphenyl)piperazin-1-yl)but-1-en-1-yl)quinolin-2(1H)-one] | −0.90 | −1.24
7 | O=C1NCc2cc(/C=C/[C@@H](O)CN3CCN(c4ccc(C(F)(F)F)cc4)CC3)ccc2N1 [Compound 41, (R,E)-6-(3-hydroxy-4-(4-(4-(trifluoromethyl)phenyl)piperazin-1-yl)but-1-en-1-yl)-3,4-dihydroquinazolin-2(1H)-one] | −0.64 | −1.04
8 | O=C1COc2cc(/C=C/[C@@H](O)CN3CCN(c4ccc(C(F)(F)F)cc4)CC3)ccc2N1 [Compound 15, (R,E)-7-(3-hydroxy-4-(4-(4-(trifluoromethyl)phenyl)piperazin-1-yl)but-1-en-1-yl)-2H-benzo[b][1,4]oxazin-3(4H)-one] | −0.88 | −1.04
9 | O=C1COc2cc(/C=C/[C@H](O)CN3CCN(c4ccc(C(F)(F)F)cc4)CC3)ccc2N1 [Compound 16, (S,E)-7-(3-hydroxy-4-(4-(4-(trifluoromethyl)phenyl)piperazin-1-yl)but-1-en-1-yl)-2H-benzo[b][1,4]oxazin-3(4H)-one] | −0.67 | −1.29
10 | O=C1CCc2cc(/C=C/[C@@H](O)CN3CCN(c4ccc(C(F)(F)F)cc4)CC3)ccc2N1 [Compound 35, (R,E)-6-(3-Hydroxy-4-(4-(4-(trifluoromethyl)phenyl)piperazin-1-yl)but-1-en-1-yl)-3,4-dihydroquinolin-2(1H)-one] | −0.68 | −0.75
11 | O=c1ccc2cc(/C=C/[C@H](O)CN3CCN(c4ccc(C5CC5)cc4)CC3)ccc2[nH]1 [Compound 13, (S,E)-6-(4-(4-(4-cyclopropylphenyl)piperazin-1-yl)-3-hydroxybut-1-en-1-yl)quinolin-2(1H)-one] | −0.81 | −0.80
12 | NC(=O)Nc1ccc(/C=C/[C@H](O)CN2CCN(c3ccc(C(F)(F)F)cc3)CC2)cc1 [Compound 39, (S,E)-1-(4-(3-Hydroxy-4-(4-(4-(trifluoromethyl)phenyl)piperazin-1-yl)but-1-en-1-yl)phenyl)urea] | −0.43 | −0.69
13 | CCCc1ccc(N2CCN(C[C@@H](O)/C=C/c3ccc4[nH]c(=O)ccc4c3)CC2)cc1 [Compound 11, (S,E)-6-(3-hydroxy-4-(4-(4-propylphenyl)piperazin-1-yl)but-1-en-1-yl)quinolin-2(1H)-one] | −0.87 | −0.52
14 | O=C1CCc2cc(/C=C/C(CO)N3CCN(c4ccc(Cl)cc4)CC3)ccc2N1 (racemic) [Compound 23, (rac)-(E)-6-(3-(4-(4-chlorophenyl)piperazin-1-yl)-4-hydroxybut-1-en-1-yl)-3,4-dihydroquinolin-2(1H)-one] | −1.09 | −0.60
15 | NC(=O)Nc1ccc(/C=C/[C@@H](O)CN2CCN(c3ccc(C(F)(F)F)cc3)CC2)cc1 [Compound 38, (R,E)-1-(4-(3-Hydroxy-4-(4-(4-(trifluoromethyl)phenyl)piperazin-1-yl)but-1-en-1-yl)phenyl)urea] | −0.64 | −0.69
16 | O=C1CCc2cc(/C=C/[C@H](O)CN3CCN(c4ccc(Cl)cc4)CC3)ccc2N1 [Compound 27, (S,E)-6-(4-(4-(4-Chlorophenyl)piperazin-1-yl)-3-hydroxybut-1-en-1-yl)-3,4-dihydro-quinolin-2(1H)-one] | −0.95 | −0.64
17 | CC(C)c1ccc(N2CCN(C[C@@H](O)/C=C/c3ccc(NC(N)=O)cc3)CC2)cc1 [Compound 36, (S,E)-1-(4-(3-Hydroxy-4-(4-(4-isopropylphenyl)piperazin-1-yl)but-1-en-1-yl)phenyl)urea] | −0.82 | −1.05
18 | O=C1CCc2cc(/C=C/[C@@H](CO)N3CCN(c4ccc(C(F)(F)F)cc4)CC3)ccc2N1 [Compound 43, (S,E)-6-(4-Hydroxy-3-(4-(4-(trifluoromethyl)phenyl)piperazin-1-yl)but-1-en-1-yl)-3,4-dihydroquinolin-2(1H)-one] | −0.67 | −1.09
19 | CC(C)c1ccc(N2CCN(C[C@@H](O)/C=C/c3ccc4c(c3)CCC(=O)N4)CC2)cc1 [Compound 25, (S,E)-6-(3-Hydroxy-4-(4-(4-isopropylphenyl)piperazin-1-yl)but-1-en-1-yl)-3,4-dihydroquinolin-2(1H)-one] | −0.61 | −1.22
20 | O=C1NCc2cc(/C=C/[C@@H](O)CN3CCN(c4ccc(C5CC5)cc4)CC3)ccc2N1 [Compound 18, (R,E)-6-(4-(4-(4-cyclopropylphenyl)piperazin-1-yl)-3-hydroxybut-1-en-1-yl)-3,4-dihydroquinazolin-2(1H)-one] | −0.78 | −1.28
